Data as given in article PMC11284600, “Many human pharmaceuticals are weak inhibitors of the cytochrome P450 system in rainbow trout (Oncorhynchus mykiss) liver S9 fractions” (Frontiers in Toxicology, 2024).
Counter-ions that a name gives are not always drawn.

Experiments:
CYP1A-like EROD activity = assay: in vitro; conditions: both, Christophersen, Bornhoeved, rainbow trout (Oncorhynchus mykiss)
Procedure: (§1) Commercially available rainbow trout (O. mykiss) liver S9 fractions were used as the enzyme source for the in vitro P450 inhibition assays (RTL-S9, total protein concentration 20 mg/mL, Primacyt Cell Culture Technology GmbH).
(§2) The inhibitory impacts of the test substances toward the rainbow trout liver P450 system in vitro were assessed based on EROD and BFCOD as the marker reactions for CYP1A- and CYP3A-like isoenzyme activities, respectively. […] In this study, the EROD (CYP1A) and BFCOD (CYP3A) activities were determined using 0.5 mg/mL RT-S9 (total protein) concentration and 1 or 2 mM NADPH, respectively. […] All incubations were performed in duplicate in a total volume of 100 µL of potassium phosphate buffer (0.1 M, pH 7.8), at 11°C ± 1°C on a thermostated orbital shaker (LLG Labware). The reactions were terminated by the addition of 37.5 μL of the quenching solution (0.5 M Trizma base/acetonitrile 20:80, v/v). […] The quantitation of the metabolites (resorufin or HFC) was based on linear regression of the respective standards prepared in the potassium phosphate buffer. Negative control incubations were performed separately without the marker substrate, without cofactors, and without RT-S9 to ensure that the detected fluorescence signals arise from the metabolic conversion of the marker substrates (ER or BFC) into their respective metabolites (resorufin or HFC, respectively).
(§3) In this study, the preincubation was performed using three different protocols A-C (Table 2). In the first protocol, the test substance (each separately at six different concentrations between 0.01 and 500 µM) and RT-S9 were preincubated without any cofactors, and the marker reaction was initiated by the addition of the marker substrate (ER or BFC) and NADPH (Protocol A). This enabled the determination of the inhibitory impact of the parent form of the test substance on the respective marker activity. In the second protocol, the test substance and RT-S9 were preincubated together with NADPH, and the marker reaction was initiated by the addition of the marker substrate (Protocol B). In this manner, the test substance could undergo P450 metabolism already during the preincubation step, which may reduce its concentration and thus the inhibitory impact toward the marker reactions, or result in the formation of reactive or inhibitory metabolites, which typically increases the inhibitory impact compared with the parent form (Protocol A). […] In this manner, the test substance could undergo both P450 and phase II metabolism already during the preincubation step, which may likewise reduce its concentration and inhibitory impact toward the marker reactions, and even help eliminate the possible reactive metabolites via glutathione conjugation. […] Additionally, positive control incubations of the marker substrates (ER or BFC) without the test substance (zero inhibitor concentration) were included in each series to determine the basal EROD or BFCOD activity in RT-S9.
(§4) The residual solvent concentration was kept constant at all inhibitor concentrations, including zero, to eliminate its impact on the IC50 concentrations derived from the empirical data. The IC50 shifts for Protocols B and C were calculated according to Eq. 2: IC50 shift=IC50,Protocol A/IC50,Protocol B or Protocol C (2)
(§5) In this manner, the impact of the test substance’s own metabolism (during the preincubation step) on the inhibitory impact could be evaluated.

[1] = tested on: CYP1A-like ethoxyresorufin O-deethylase (EROD) activity in rainbow trout liver S9 fractions; assay: in vitro
Procedure: as §1, §2, §3, §4, §5

[2] = tested on: CYP1A-like ethoxyresorufin O-deethylase (EROD) activity; assay: in vitro; conditions: both, Christophersen, Bornhoeved, rainbow trout (Oncorhynchus mykiss); for inhibition at 10 min: pH 7.8
Procedure: as §1, §2, §3, §4, §5

[3] = molecular target: T1, CYP3A-like 7-benzyloxy-4-trifluoromethylcoumarin O-debenzylase (BFCOD) activity in rainbow trout liver S9 fractions (Oncorhynchus mykiss, UniProt O42563); assay: BFCOD inhibition in RT-S9 (IC50 shift assay); conditions: within the tested concentration range
T1 sequence (O42563 1-518): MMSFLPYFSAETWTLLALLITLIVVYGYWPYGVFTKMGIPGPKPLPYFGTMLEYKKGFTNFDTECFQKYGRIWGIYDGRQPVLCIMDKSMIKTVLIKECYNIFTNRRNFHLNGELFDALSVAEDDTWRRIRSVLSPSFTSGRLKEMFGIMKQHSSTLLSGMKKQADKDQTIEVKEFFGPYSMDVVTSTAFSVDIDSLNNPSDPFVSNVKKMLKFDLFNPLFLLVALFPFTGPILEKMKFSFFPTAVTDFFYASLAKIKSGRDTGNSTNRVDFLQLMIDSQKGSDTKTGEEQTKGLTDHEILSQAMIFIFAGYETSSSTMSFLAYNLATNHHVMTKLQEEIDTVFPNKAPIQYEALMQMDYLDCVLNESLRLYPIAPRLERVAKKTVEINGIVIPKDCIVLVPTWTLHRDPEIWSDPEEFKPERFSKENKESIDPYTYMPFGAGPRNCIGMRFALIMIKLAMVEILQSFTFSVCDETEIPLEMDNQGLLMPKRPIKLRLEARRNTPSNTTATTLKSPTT
Procedure: as §1, §2, §3, §4, §5

[4] = molecular target: T2, CYP3A-like BFCOD activity (Oncorhynchus mykiss, UniProt O42563); assay: BFCOD inhibition in RT-S9 (IC50 shift assay); conditions: both, Christophersen, Bornhoeved, rainbow trout (Oncorhynchus mykiss), s9, pH 7.8
T2 sequence (O42563 1-518): T1 sequence (O42563 1-518)
Procedure: as §1, §2, §3, §4, §5

[5] = Unbound fraction in RT-S9 by rapid equilibrium dialysis; type: in vitro ADME, rainbow trout (Oncorhynchus mykiss); conditions: rainbow trout liver S9 fractions (RT-S9), 10 µM test substance, 1 mg/mL RT-S9, pH 7.8, 11°C, n = 3, read-out: Unbound fraction (fU,RT-S9)
Procedure: The unbound (free) fractions of the test substances in RT-S9 (fU,RT-S9) were determined using rapid equilibrium dialysis assay (RED, Thermo Fisher Scientific), which exploits two-compartment inserts separated by a dialysis membrane with a molecular weight cut-off of 8,000 Da. In the RED assay, each test pharmaceutical (10 μM) was incubated in triplicate with RT-S9 (1 mg/mL) in 50 mM potassium phosphate buffer (pH 7.8) in a total volume of 300 µL on one side of the membrane (protein-containing chamber), and 350 μL of the plain phosphate buffer on the other side (protein-free chamber). To reach equilibrium, the samples were incubated on an orbital shaker (C25KC Incubator shaker, New Brunswick Scientific, 120 rpm) at 11°C for 4 h. Next, 50 µL aliquots were collected from both chambers separately and diluted by adding 50 µL of the plain buffer (to the protein-containing sample) or 50 μL of 1 mg/mL RT-S9 in the buffer (to the protein-free sample). Finally, the RT-S9 protein was precipitated by the addition of acetonitrile (+200 μL) to both samples separately, followed by incubation on ice for 30 min and centrifugation (16100 g, 15 min). The test substance concentrations in the supernatants of both samples were determined using liquid chromatography. The instrumentation and the analytical methods used for chromatographic analyses are described in detail in the Supplementary Table S2. The unbound fractions of the test substances in RT-S9 (fU,RT-S9) were calculated according to Eq. 3: fU,RT−S9=1− PC−PF/PC (3) where [PC] and [PF] are the test substance concentrations in the samples collected from protein-containing and protein-free chambers, respectively. To account for the test substance’s binding to the RT-S9, the nominal IC50 values were corrected for unbound fraction (fU,RT-S9) according to Eq. 4: Unbound IC50=Nominal IC50×fU,RT−S9 (4)

[6] = set-up: method as in Chemaxon; conditions: pH 7.8; (e) empirical; ref Chemaxon; cited from earlier work
Human CYP1A = conditions: ref Drugbank unless otherwise stated (Dragovic et al., 2013; Conard and Ober 1984; Niwa et al., 2005); cited from earlier work
[7] = set-up: method as in PubChem; conditions: (e) empirical; ref PubChem; cited from earlier work
[8] = pH 7.8, EROD inhibition in RT-S9, Nominal IC50

CNCC[C@@H](Oc1ccccc1C)c1ccccc1 [Atomoxetine, atomoxetine hydrochloride]
IC50 shift at 10 min (CYP1A-like EROD activity; s9, pH 7.8, EROD inhibition in RT-S9, IC50 shift (A/B)): 0.9 ± 0.1
IC50 shift at 10 min (CYP1A-like EROD activity; s9, pH 7.8, EROD inhibition in RT-S9, IC50 shift (A/C)): 1.1
EROD inhibition in RT-S9 (in words) [1]: inhibited selectively only EROD activity
inhibition at 10 min [2]: ≤ 50%
IC50 at 10 min [2, 8]: > 100 µM
IC50 at 10 min ([2]; pH 7.8, EROD inhibition in RT-S9, Unbound IC50): 20 ± 4 µM
BFCOD inhibition in RT-S9 (in words) [3]: did not significantly inhibit
IC50 at 20 min [4]: > 25 µM
fraction unbound at 4 h, 10 µM [5]: 0.2 ± 0.03
Water solubility [6]: 27.8 (e) mg/mL

O=C(NCC1CCCCN1)c1cc(OCC(F)(F)F)ccc1OCC(F)(F)F (stereo not drawn) [Flecainide, flecainide acetate]
EROD inhibition in RT-S9 (in words) [1]: inhibited selectively only EROD activity
IC50 [1]: 82 ± 14 µM
inhibition at 10 min [2]: ≤ 50%
IC50 at 10 min [2, 8]: > 100 µM
BFCOD inhibition in RT-S9 (in words) [3]: did not significantly inhibit
IC50 at 20 min [4]: > 25 µM
fraction unbound at 4 h, 10 µM [5]: 0.36 ± 0.03
Human CYP1A interactions: substrate status (Human CYP1A): Substrate

CN(C)CCc1c[nH]c2ccc(C[C@H]3COC(=O)N3)cc12 [Zolmitriptan, zolmitriptan]
BFCOD inhibition in RT-S9 (in words) [3]: did not significantly inhibit
LogKOW [7]: 1.792 (e)
Human CYP1A interactions: substrate status (Human CYP1A): Substrate
